The results in this text go back to US9695155B2, “Herbicidal substituted pyrimidinyloxy benzene compounds” (E. I. DU PONT DE NEMOURS AND COMPANY, priority 2013, dated 2017).

SMILES strings stand for the structures.

Assay [1] has as its system barnyardgrass. Nature of the assay: Test A preemergence. The note with it: for Plant response rating, Barnyardgrass / Barnyardgrass plant response rating: 0 to 100 scale where 0 is no effect and 100 is complete control; for Barnyardgrass plant response rating: 500 g ai/ha. The format is in vivo, Echinochloa crus-galli. In a few lines:
(§1)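 Visual 0–100 rating (100 = complete control) taken about 10 d post-treatment relative to untreated checks. Preemergence: directed soil spray on sown loam/sand pots. Postemergence: seedlings 2–10 cm, 1–2 leaf. Non-phytotoxic solvent formulation with surfactant.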

Assay [2] concerns barnyardgrass. Nature of the assay: Test A postemergence. The class given is in vivo, Echinochloa crus-galli. In outline: as §1
A further assay deals with corn. Nature of the assay: Test A postemergence. The class given is in vivo, Zea mays. In outline:
as §1

Another assay concerns rice. Nature of the assay: Test B flooded paddy test. The class given is in vivo, Oryza sativa. The note with it: Flood, 250 g ai/ha; 0 to 100 scale where 0 is no effect and 100 is complete control. In outline: (§2)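 Flooded to 3 cm at the 2-leaf stage, pots received compound through the paddy water and were kept at that depth under greenhouse conditions. After 13–15 days, effect was rated by eye relative to controls, 0 = none and 100 = complete control.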

The next assay concerns sedge, umbrella. Nature of the assay: Test B flooded paddy test. The class given is in vivo, Cyperus difformis. The note with it: Flood, 250 g ai/ha; 0 to 100 scale where 0 is no effect and 100 is complete control. In a few lines: as §2
The next assay has as its system galium. Nature of the assay: Test C preemergence. The format is in vivo, Galium aparine. The note with it: for Galium plant response rating: preemergence; for Plant response rating, Galium: Preemergence, scale 0 to 100, 0 no effect, 100 complete control. In outline: (§3)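 Whole-plant greenhouse test with surfactant-containing solvent formulation, applied preemergence to sown loam–sand pots or postemergence to 2–18 cm plants. Scored by eye 13 to 15 days on, 0–100 scale.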

The test system of another assay is large (Lg) crabgrass. Nature of the assay: Test C preemergence. The note with it: for Crabgrass, Large plant response rating: preemergence; for Plant response rating, Crabgrass, Large: Preemergence, scale 0 to 100, 0 no effect, 100 complete control. The class given is in vivo, Digitaria sanguinalis. In a few lines: as §3
In another assay the test system is johnsongrass. Nature of the assay: Test C preemergence. The format is in vivo, Sorghum halepense. The note with it: for Johnsongrass plant response rating: preemergence; for Plant response rating, Johnsongrass: Preemergence, scale 0 to 100, 0 no effect, 100 complete control. In outline:
as §3

In the next assay the test system is velvetleaf. Nature of the assay: Test C preemergence. The format is in vivo, Abutilon theophrasti. The note with it: for Velvetleaf plant response rating: preemergence; for Plant response rating, Velvetleaf: Preemergence, scale 0 to 100, 0 no effect, 100 complete control. In outline: as §3
The mark [3] stands for this setting: 125 g ai/ha, 0 to 100 scale where 0 is no effect and 100 is complete control.
Where [4] appears, read: 500 g ai/ha, 0 to 100 scale where 0 is no effect and 100 is complete control.
Setting [5] is: 16 g ai/ha, scale 0 to 100 (0 no effect, 100 complete control).
Where [6] appears, read: 62 g ai/ha, scale 0 (no effect) to 100 (complete control).
Setting [7] is: 125 g ai/ha, scale 0 (no effect) to 100 (complete control).
Where [8] appears, read: 31 g ai/ha, 0 to 100 scale, 0 no effect, 100 complete control.

In the case of `Fc1cccc(Oc2ncc(Cl)cn2)c1-n1cc(I)cn1` [Compound 179], the “Plant response rating, Barnyardgrass” value was determined as 20 with barnyardgrass [1] (125 g ai/ha) and 100 in the assay on barnyardgrass [2] (setting [4]). For the same molecule, the “Barnyardgrass plant response rating” value in the assay with barnyardgrass [1] came out at 100; in the assay on barnyardgrass [2] (setting [3]), 80. Besides, in the assay on corn (setting [3]), the “Corn plant response rating” value came out at 30. Moreover, the “Plant response rating, Corn” value with corn (setting [4]) amounted to 60. For the same molecule, the “Plant response rating, Rice” value in the assay on rice is 0. In the assay on sedge, umbrella, the “Plant response rating, Sedge, Umbrella” value was 85. Besides, the “Galium plant response rating” value with galium (setting [5]) was 90; in the assay with galium (setting [6]) it was 98; in the assay with galium (setting [7]), 100. Moreover, the “Plant response rating, Galium” value in the assay on galium (31 g ai/ha) was 95. Besides, the “Crabgrass, Large plant response rating” value with large (Lg) crabgrass (setting [5]) turned out to be 55; in the assay on large (Lg) crabgrass (setting [6]) it was 98; with large (Lg) crabgrass (setting [7]) it was 100. The “Plant response rating, Crabgrass, Large” value with large (Lg) crabgrass (31 g ai/ha) is 90. Besides, the “Johnsongrass plant response rating” value was 0 in the assay on johnsongrass (setting [5]), 65 in the assay on johnsongrass (setting [6]) and 98 in the assay on johnsongrass (setting [7]). The “Velvetleaf plant response rating” value is 60 in the assay on velvetleaf (setting [5]), 98 in the assay with velvetleaf (setting [6]) and 100 in the assay on velvetleaf (setting [7]).
With `CCOc1cnn(-c2ccccc2Oc2ncc(Cl)cn2)c1` [Compound 187], the “Barnyardgrass plant response rating (0 to 100 scale, 0 is no effect, 100 is complete control)” value in the assay on barnyardgrass [1] (125 g ai/ha) was determined as 80. The figures for the “Barnyardgrass plant response rating” value with barnyardgrass [1] and in the assay on barnyardgrass [2] (setting [3]) were 100 and 80, respectively. Also, in the assay with barnyardgrass [2] (setting [4]), the “Plant response rating, Barnyardgrass” value came to 90. For the same molecule, the “Corn plant response rating” value in the assay with corn (setting [3]) amounted to 10. Moreover, in the assay with corn (setting [4]), the “Plant response rating, Corn” value came to 70. In addition, the “Plant response rating, Rice” value in the assay on rice worked out at 0. Further, the “Plant response rating, Sedge, Umbrella” value with sedge, umbrella is reported as 50. Moreover, the “Galium plant response rating” value with galium (setting [5]) is listed as 30; in the assay with galium (setting [7]), 98. Moreover, the “Plant response rating, Galium” value in the assay with galium (62 g ai/ha) was found to be 90. Moreover, the “Crabgrass, Large plant response rating” value in the assay on large (Lg) crabgrass (setting [5]) is reported as 5; in the assay with large (Lg) crabgrass (setting [7]), 100. Moreover, the “Plant response rating, Crabgrass, Large” value in the assay on large (Lg) crabgrass (62 g ai/ha) was found to be 100. Moreover, the “Johnsongrass plant response rating” value with johnsongrass (setting [5]) was determined as 0; with johnsongrass (setting [7]), 45. Further, the “Plant response rating, Johnsongrass” value with johnsongrass (62 g ai/ha) turned out to be 30. Moreover, the “Velvetleaf plant response rating” value worked out at 25 in the assay on velvetleaf (setting [5]) and 100 in the assay on velvetleaf (setting [7]). The “Plant response rating, Velvetleaf” value in the assay with velvetleaf (62 g ai/ha) is on record as 95.
Consider `FCc1cccc(Oc2ncc(F)cn2)c1-n1cc(C(F)(F)F)cn1` [Compound 118], for which the “Barnyardgrass plant response rating (0 to 100 scale)” value in the assay with barnyardgrass [1] (31 g ai/ha) is 50. For the same molecule, the “Plant response rating, Barnyardgrass” value with barnyardgrass [1] (125 g ai/ha) was found to be 100; in the assay on barnyardgrass [2] (setting [8]), 30; in the assay with barnyardgrass [2] (setting [3]), 80. For the same molecule, the “Plant response rating, Corn” value was found to be 10 in the assay with corn (setting [8]) and 50 in the assay with corn (setting [3]). The “Plant response rating, Rice” value in the assay on rice turned out to be 60. Further, the “Plant response rating, Sedge, Umbrella” value in the assay with sedge, umbrella is 95. In addition, the “Galium plant response rating” value was found to be 95 with galium (setting [5]), 100 with galium (setting [6]) and 100 in the assay on galium (setting [7]). The “Plant response rating, Galium” value in the assay on galium (31 g ai/ha) is 95. Besides, the “Crabgrass, Large plant response rating” value in the assay on large (Lg) crabgrass (setting [5]) came out at 30; with large (Lg) crabgrass (setting [6]), 85; with large (Lg) crabgrass (setting [7]) it was 100. Besides, the “Plant response rating, Crabgrass, Large” value with large (Lg) crabgrass (31 g ai/ha) came out at 80. Also, the “Johnsongrass plant response rating” value was determined as 0 in the assay with johnsongrass (setting [5]), 85 with johnsongrass (setting [6]) and 100 in the assay on johnsongrass (setting [7]). Moreover, the “Plant response rating, Johnsongrass” value with johnsongrass (31 g ai/ha) turned out to be 25. The “Velvetleaf plant response rating” value in the assay on velvetleaf (setting [5]), with velvetleaf (setting [6]) and in the assay on velvetleaf (setting [7]) was 100 throughout. The “Plant response rating, Velvetleaf” value with velvetleaf (31 g ai/ha) was found to be 100.
Turning to `COc1cnn(-c2c(C#N)cccc2Oc2ncc(Cl)cn2)c1` [Compound 137], the “Plant response rating, Barnyardgrass” value in the assay with barnyardgrass [1] (125 g ai/ha) is 20; with barnyardgrass [2] (setting [4]), 100. In addition, the “Barnyardgrass plant response rating” value with barnyardgrass [1] is 100; with barnyardgrass [2] (setting [3]) it was 0. In the assay on corn (setting [3]), the “Corn plant response rating” value came to 30. For the same molecule, in the assay on corn (setting [4]), the “Plant response rating, Corn” value was found to be 80. In the assay on rice, the “Plant response rating, Rice” value is 0. The “Plant response rating, Sedge, Umbrella” value in the assay with sedge, umbrella turned out to be 0. Moreover, the “Galium plant response rating” value in the assay with galium (setting [5]) is listed as 5; with galium (setting [6]), 10; in the assay on galium (setting [7]), 95. The “Plant response rating, Galium” value in the assay with galium (31 g ai/ha) came to 5. The “Crabgrass, Large plant response rating” value in the assay with large (Lg) crabgrass (setting [5]) was 10; in the assay on large (Lg) crabgrass (setting [6]) it was 98; in the assay with large (Lg) crabgrass (setting [7]), 100. The “Plant response rating, Crabgrass, Large” value with large (Lg) crabgrass (31 g ai/ha) came out at 70. The results for the “Johnsongrass plant response rating” value in the assay on johnsongrass (setting [5]), with johnsongrass (setting [6]) and in the assay on johnsongrass (setting [7]) were 0, 5 and 45, respectively. In addition, the “Velvetleaf plant response rating” value is 40 with velvetleaf (setting [5]), 65 with velvetleaf (setting [6]) and 85 in the assay on velvetleaf (setting [7]).
